Data reported in ChEMBL document CHEMBL5727805, “Bicyclic quinazolinone derivatives” (2020).

Molecular target: Autotaxin (Homo sapiens, UniProt Q13822)
Assay: Human ATX Enzyme Inhibition Assay: ATX inhibition was measured by a fluorescence quenching assay using a specifically labeled substrate analogue (MR121 substrate). To obtain this MR121 substrate, BOC and TBS protected 6-amino-hexanoic acid (R)-3-({2-[3-(2-{2-[2-(2-amino-ethoxy)-ethoxy]-ethoxy}-ethoxy)-propionylamino]-ethoxy}-hydroxy-phosphoryloxy)-2-hydroxy-propyl ester (Ferguson et al., Org. Lett. 2006, 8, 2023) was labeled with MR121 fluorophore [CAS RN 185308-24-1], 1-(3-carboxypropyl)-11-ethyl-1,2,3,4,8,9,10,11-octahydro-dipyrido[3,2-b:2′,3′-i]phenoxazin-13-ium) on the free amine of the ethanolamine side and then, after deprotection, subsequently with tryptophan on the side of the aminohexanoic acid.Assay working solutions were made as follows:Assay buffer (50 mM Tris-HCl, 140 mM NaCl, 5 mM KCl, 1 mM CaCl2, 1 mM MgCl2, 0.01% Triton-X-100, pH 8.0;ATX solution: ATX (human His-tagged) stock solution (1.08 mg/mL in 20 mM bicine, pH 8.5, 0.15 M NaCl, 10% glycerol, 0.3% CHAPS, 0.02% NaN3), diluted to 1.4-2.5× final concentration in assay buffer;MR121 substrate solution: MR121 substrate stock solution (800 μM MR121 substrate in DMSO), diluted to 2-5× final concentration in assay buffer.Test compounds (10 mM stock in DMSO, 8 μL) were obtained in 384 well sample plates (Corning Costar #3655) and diluted with 8 μL DMSO. […]

For CC(=O)N1CCCN(c2ccc3ncn(CC(=O)NCc4ccc(Cl)c(Cl)c4)c(=O)c3c2)CC1, which IC50 is on record?
The IC50 was 35 nM.
